According to ChEMBL document CHEMBL1134063, “Identification of a potent and selective oxytocin antagonist, from screening a fully encoded differential release combinatorial chemical library” (Bioorg Med Chem Lett, 2001):

Target: T1, Oxytocin receptor (Homo sapiens, UniProt P30559)
T1 sequence (P30559 whole entry): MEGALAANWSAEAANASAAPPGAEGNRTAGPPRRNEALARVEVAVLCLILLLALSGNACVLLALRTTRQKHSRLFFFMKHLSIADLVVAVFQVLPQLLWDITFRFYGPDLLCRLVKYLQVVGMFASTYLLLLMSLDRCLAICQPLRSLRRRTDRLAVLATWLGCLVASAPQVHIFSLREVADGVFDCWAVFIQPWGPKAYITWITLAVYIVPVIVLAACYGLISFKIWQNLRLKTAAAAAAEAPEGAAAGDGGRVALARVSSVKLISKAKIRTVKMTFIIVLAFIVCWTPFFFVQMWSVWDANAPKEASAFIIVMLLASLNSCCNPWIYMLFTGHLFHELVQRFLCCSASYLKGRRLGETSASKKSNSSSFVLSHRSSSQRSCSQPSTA
Assay: Inhibitory concentration required for antagonist activity against oxytocin receptor
Format: functional

SMILES | IC50
CC(=O)CCCC(=O)NC1N=C(c2ccccc2)c2ccccc2N(CC(=O)N[C@@H](Cc2ccc(Cl)c(Cl)c2)C(N)=O)C1=O (some centres not stated) | 5 nM
CC(=O)CCCC(=O)NC1N=C(c2ccccc2)c2ccccc2N(CC(=O)N[C@@H](Cc2cccs2)C(N)=O)C1=O (some centres not stated) | 1 nM
